The text below walks through data of PMC5656594 (Scientific Reports, 2017).

Assay [1] in a line: DTG-Mg2+ interaction, titration of DTG fluorescence emission enhancement as a function of [Mg2+]. It counts as physicochemical. To be noted: DTG 1 μM, λex 345 nm, buffer A, hyperbolic titration curve; read-out: Kd of the DTG-Mg^2+ interaction. The source says:
Figure 1 Fluorescence properties of INSTIs in solution and influence of divalent cations. […] Corresponding excitation and emission spectra are shown in Supplementary Fig. S1. Excitation and emission slits: Δλex = Δλem = 5 nm (PMT = 750 V). The fluorescence enhancement factor corresponds to the drug fluorescence emission intensity for a given Mg^2+ concentration normalized by the intensity in the absence of Mg^2+. […] The emission intensity was reported as a function of [Mg^2+] (inset). […] The bar graphs in panels A and D show mean ± SD values from three independent experiments. […] Only [Mg2+] and λex: 345 nm appear in the panel, so the substance is left empty.
Furthermore, both drugs display a Mg^2+ dependence of fluorescence intensity, however with some differences. A slight increase of EVG fluorescence intensity was observed upon addition of Mg^2+ (a 3-fold increase for the two excitation modes from 0 to 10 mM Mg^2+; Fig. 1B). […] This Mg^2+-dependent enhancement is related to an increase of the fluorescence quantum yield since no Mg^2+-dependent change in the absorption spectrum was observed (Supplementary Fig. S2A).
(§1) Fluorescence excitation and emission spectra of INSTIs were recorded on a Eclipse (Varian) spectrofluorimeter equipped with two polarizers for anisotropy measurements and a thermostated cell holder, using 80 µl solutions placed in micro cells (Hellma). […]

The test system of another assay is DNA alone (PFV^CAAT). Put plainly: DTG fluorescence enhancement in the presence of DNA alone. It counts as binding, prototype foamy virus (PFV). To be noted: 1 mM Mg2+. The method, then: The three other conditions (i→iii) led to superimposable spectra. To note, the presence of IN/DNA complexes accounts for light scattering on the blue side of the spectrum.
All experiments were performed in the presence of 1 mM Mg^2+ (see Supplementary Fig. S4 for [Mg^2+] = 10 mM). λex = 345 nm and PMT = 980 V (Δλex = Δλem = 5 nm). […] Contributions of Raman and Rayleigh scattering were eliminated in the inset spectrum: (viii) = (iv)–(vii) where (vii) represents the proper spectrum of Mg^2+-DTG in the context of the binary IN-DNA complex. […] [Mg^2+] = 1 mM. Inset: fluorescence intensity (375–385 nm) as a function of (IN + DNA). The arrows indicate the intensity level after addition of 500 mM NaCl. Emission spectra are representative of 3 independent experiments for each condition of (IN + DNA). […] (E) Measurement of the binary IN-DNA complex formation. The formation of binary complexes was performed by monitoring the fluorescence anisotropy (r) of DNA (Fl-PFV^CAAT) under similar experimental conditions of the DTG-binding assay (panels C-D). Top, varying stoichiometric concentrations of IN and DNA were mixed and the r parameter was monitored. […]
as §1

Another assay relates to S217K IN^PFV mutant. Format: biochemical, prototype foamy virus (PFV). As to conditions: S217K versus wt, ST activity.
Assay [2] has as its target T1, PFV IN complexed with various DNA sequences (Human spumaretrovirus, UniProt P14350).
T1 construct: The full-length wt IN^PFV, the three single mutants of the catalytic triad; His; made in house; host or cells: E. coli BL21-CodonPlus (DE3)-RIPL
Put plainly: DTG binding to IN complexed with various DNA sequences, fluorescence anisotropy procedure. Also on record: species or system prototype foamy virus (PFV). As to conditions: normalized by DNA#1, [IN]=[DNA]=1.8 μM, [DTG]=0.6 μM, 10 mM Mg2+. The method, then:
The binary complex concentration was measured as explained in Fig. 2E. […] This percentage was then plotted against the concentration of the binary complex (F). […] All graphs show representative data of three (panels A and B) or two (panels C–F) independent experiments.
Fluorescence excitation and emission spectra of INSTIs were recorded on a Eclipse (Varian) spectrofluorimeter equipped with two polarizers for anisotropy measurements and a thermostated cell holder, using 80 µl solutions placed in micro cells (Hellma). Drug, IN and DNA concentrations, excitation/emission slit settings as well as the photomultiplier tube (PMT) voltage are specified in figure legends. The intensity value was corrected from the inner filter effect. The steady-state fluorescence anisotropy was calculated using: r = (IVV–G x IVH)/(IVV + 2GxIVH) where IVV and IVH correspond to vertical and horizontal components, respectively, when the sample is excited with vertically polarized light. G represents the correction factor for the difference in the monochromator transmission between // and ⊥ polarized components: G = IHV/IHH. All experiments were performed at 25 °C in buffer A: 20 mM Tris pH 7.2, 50 mM NaCl, 1 mM DTT and 10% (v/v) DMSO.
(In fluorescence polarisation assays a small probe gives low polarisation when free and higher when bound to something large.)

A further assay concerns S217H IN^PFV mutant. As to conditions: S217H versus wt; cited from earlier work.
The next assay addresses T2, D128N IN^PFV-DNA complex (Human spumaretrovirus, UniProt P14350, D879N/G968S/S969G).
T2 construct: The pET-IN-PFV plasmid containing the full-length IN gene was used for mutagenesis; His; made in house; host or cells: E. coli BL21-CodonPlus (DE3)-RIPL
Kind of assay: Fluorescence enhancement DTG-binding assay, D128N catalytic mutant. Also on record: species or system prototype foamy virus (PFV). As to conditions: 1 mM Mg2+. How it is done:
(§2) The fluorescence intensity was monitored as a function of (IN + DNA) and plotted as a function of the binary IN-DNA complex concentration (measured as explained in Fig. 2E legend). […] (B) The percentage of ternary complexes was calculated using DTG fluorescence enhancement. […] The graphs in panels A-B show representative data of three independent experiments. […] "DTG" is taken from the y-axis title of the same panel.
(§3) To note, Mg^2+ is dispensable for the overall DNA-binding step of IN[32],[43]–[45] and thus, the loss of Mg^2+ chelation is not contradictory with results showing that catalytic mutants bind equally well to DNA and in a similar manner than wt IN (Supplementary Fig. S6). However, G187R cannot be considered as a catalytic mutant since it sustains a significant ST activity although weak (≈10% of the wt activity; Fig. 6).
(§4) Fluorescence excitation and emission spectra of INSTIs were recorded on a Eclipse (Varian) spectrofluorimeter equipped with two polarizers for anisotropy measurements and a thermostated cell holder, using 80 µl solutions placed in micro cells (Hellma). […] The steady-state fluorescence anisotropy was calculated using: r = (IVV–G x IVH)/(IVV + 2GxIVH) where IVV and IVH correspond to vertical and horizontal components, respectively, when the sample is excited with vertically polarized light. […]

The next assay concerns the target T3, S217K IN^PFV-DNA complex (Human spumaretrovirus, UniProt P14350, G968K/S969G).
T3 construct: The pET-IN-PFV plasmid containing the full-length IN gene was used for mutagenesis; His; made in house; host or cells: E. coli BL21-CodonPlus (DE3)-RIPL
Kind of assay: DTG fluorescence anisotropy binding assay, S217K mutant. Also on record: species or system prototype foamy virus (PFV). As to conditions: 10 mM Mg2+, DTG 0.6 μM, [IN]=[DNA]=2.4 μM. How it is done: as §2, §3, §4

The next assay addresses T4, G187R IN^PFV-DNA complex (Human spumaretrovirus, UniProt P14350, G938R/G968S/S969G).
T4 construct: The pET-IN-PFV plasmid containing the full-length IN gene was used for mutagenesis; His; made in house; host or cells: E. coli BL21-CodonPlus (DE3)-RIPL
Kind of assay: DTG fluorescence anisotropy binding assay, G187R mutant. Also noted: species or system prototype foamy virus (PFV). To be noted: 10 mM Mg2+, DTG 0.6 μM, [IN]=[DNA]=2.4 μM. How it is done:
as §2, §3, §4

Several values for one entry are separate records, joined by “and”; a condition that tells them apart may be missing. Identical values can stand only once.

Description for S217K IN^PFV mutant: The graphs show representative data of three independent experiments. […] ST products were quantified as explained in the Methods section.
DNA#13 mimicking the 3′-processed end (Table 1) was radiolabeled with T4 polynucleotide kinase (NEB) and [γ-^32P]ATP (Amersham) and purified on a Sephadex G-10 column. The double-stranded DNA substrate was obtained by mixing equimolar amounts of ssDNA#13 with its 21-mer complementary strand in the presence of 100 mM NaCl. ST reactions were carried out at 37 °C with 200 or 300 nM IN in 20 mM HEPES pH 6.8, 1 mM DTT, 10 mM MgCl2 and 50 mM NaCl, in the presence of 12.5 nM DNA. After separation in a 16% acrylamide/urea denaturing gel, ST products were analyzed with a Typhoon TRIO variable mode imager (GE Healthcare) and quantified with ImageQuant TL software. ST activity was expressed as the % of the signal intensity of ST products divided by the signal intensity of the DNA substrate. […] IC50 values were determined using the Prism 5.0 software.

For the compound `C[C@@H]1CCO[C@H]2Cn3cc(C(=O)NCc4ccc(F)cc4F)c(=O)c(O)c3C(=O)N12` [DTG, dolutegravir], the Kd in assay [1] was ~1200 µM and 1000 to 2000 µM. Further, in the assay with DNA alone (PFV^CAAT), the “DTG binding to DNA alone” value is reported as “no DTG binding”. Besides, the “decrease in DTG susceptibility” value in the assay with S217K IN^PFV mutant is on record as “≈ 50 fold”; in the assay on S217H IN^PFV mutant it was 2–3 fold. Besides, the “DTG-binding (%) Fluorescence anisotropy procedure” value in assay [2] (DNA#1 (cognate)) amounted to 100%; in assay [2] (DNA#3) it was 96 ± 3%; in assay [2] (DNA#7), 42 ± 6%; in assay [2] (DNA#8), 8 ± 2%; in assay [2] (DNA#9 (random sequence)) it was 15 ± 3%; in assay [2] (DNA#11), 29 ± 3%. In addition, the “DTG-binding (%) Fluorescence anisotropy procedure” value in assay [2] (DNA#12) turned out to be 77 ± 4%; in assay [2] (DNA#13 (processed DNA product)), 79 ± 5%. The “DTG binding to D128N catalytic mutant” value at D128N IN^PFV-DNA complex is listed as “loss of DTG-binding”. Further, the “DTG binding to S217K by DTG anisotropy” value at S217K IN^PFV-DNA complex is “DTG-binding defects”. Further, the “DTG binding to G187R by DTG anisotropy” value on G187R IN^PFV-DNA complex is “DTG-binding defects”.

As usually defined, the Kd is a measure of binding affinity in units of concentration.
